# From patent US9333210B2, “Medicine composition containing vitamin D and metformin” (GUANGDONG TAIHE MEDICINE SCIENCE & TECHNOLOGY CO., LTD, priority 2011, dated 2016)
# Structures can show the parent of a compound that is named as a salt.
# Legend:
# [1] = tested on: Wistar rats with dimethyl hydrazine-induced colorectal cancer; assay: Tumorigenesis and tumor inhibition rate in dimethyl hydrazine-induced colorectal cancer rats (Example 1); assay type: in vivo; conditions: for Mean number of tumors / Number of Animals with tumor: DMH rats; for Mean number of tumors / Number of Animals with tumor / Inhibition rate(%): week 18; for Number of Animals with tumor: of 10 animals; for Inhibition rate(%): tumor number vs model control
# Excerpt: (§1) Wistar rats with dimethyl hydrazine-induced colorectal cancer were used as the model to study the chemoprevention by the combined administration of vitamin D3 and metformin hydrochloride for colorectal cancer and the effect on colorectal cancer.
# (§2) Experimental animals were randomly divided into 11 groups (each group having 10), including blank control group, model control group, low, medium and high dose groups of vitamin D3, low, medium and high dose groups of metformin, and three groups of different doses of vitamin D3 in combination with metformin. Except for the blank control group, other groups were subcutaneously injected with dimethyl hydrazine once a week respectively for 18 weeks, to induce colorectal cancer model. Dimethylhydrazine was dissolved in sodium chloride injection, and into the solution, 5% NaOH solution was added to adjust pH to 6.5-7.0, thereby obtaining a 20 mg/ml solution. The resulting solution was filtered through 0.22 μm membrane, and prepared extemporaneously.
# (§3) Vitamin D3 was prepared into 10-100 U/ml solution by using soybean oil, and intragastrically administrated, once a day. Metformin was prepare into 10-100 mg/ml solution, and administrated intragastrically, once a day. The above drugs were administrated from day 0.
# (§4) All the animals were sacrificed at the end of 18th weeks after administration. Body weights were recorded once a week during the experiment, and the administrated dose was calculated based on the body weight. The animals that died during the experiment were dissected and observed.
# (§5) 3.2.2 The large intestine was separated immediately after the animals were sacrificed, the contents of the intestine were washed away with saline, and colorectal tumors were visually observed to calculate the number of tumors. The entire colon was paved between two layers of filter paper, placed in 10% neutral formalin and fixed for 24-48 h. The fixed large intestine tissue was put into 0.2% methylene blue and stained for 10 s. The aberrant crypt foci (ACF) of the whole large intestine were immediately observed under an optical microscope, and the number of the aberrant crypt in foci was counted respectively as one, two, three and four as well as greater than four.
# (§6) 3.2.3 The data were processed by using Excel 2003 software for statistical analysis, and the obtained data were represented by mean±standard deviation (mean±SD). P<0.05 means that there is statistically significant difference between two groups.
# [2] = tested on: Wistar rats with dimethyl hydrazine-induced colorectal cancer; assay: Tumorigenesis and inhibition rate, drugs administrated from day 15 (Example 9); assay type: in vivo; conditions: drugs from day 15
# Description: Example 1 was repeated, except that: The experimental animals were randomly divided into 11 groups, with 8 in each group. Except for the blank control group, other groups were subcutaneously injected of dimethylhydrazine once a week for 18 weeks to induce colorectal cancer model. Vitamin D3 was prepared into 10-100 U/ml solution by using soybean oil, and intragastrically administrated, once a day. Metformin was prepare into 10-100 mg/ml solution, and administrated orally, once a day. The above drugs were administrated from day 15 (after two weeks). During the experiments, tumorigenesis and inhibition rate were observed.
# [3] = tested on: Wistar rats with dimethyl hydrazine-induced colorectal cancer; assay: Aberrant crypt foci (ACF) count in dimethyl hydrazine-induced colorectal cancer rats (Example 1); assay type: in vivo; conditions: for ACF AC = 1 / ACF AC = 2 / ACF AC = 3 / ACF AC ≧ 4 / The total number of ACF: DMH rats, week 18; for inhibitory effect on ACF, trend with dose: low, medium, high dose groups, end of week 18
# Excerpt: as §1, §2, §3, §4, §5, §6
# [4] = General situation and body weight of the rats (Example 1); conditions: DMH rats; for Weight gain: after 18 weeks; for Body weight Week 0: baseline
# Excerpt: as §2, §3, §4
# 3.2.1 The animals were observed daily to record the general conditions, such as mental activity, food-taking, feces, hair, and the like.
# [5] = high dose group, metformin hydrochloride 360 mg/kg intragastrically once a day
# [6] = low dose group, metformin hydrochloride 40 mg/kg intragastrically once a day
# [7] = low, medium, high dose groups, end of week 18
# [8] = medium dose group, metformin hydrochloride 120 mg/kg intragastrically once a day
# [9] = high dose group, Vitamin D 300 U/kg intragastrically once a day
# [10] = low dose group, Vitamin D 30 U/kg intragastrically once a day
# [11] = medium dose group and high dose group, P<0.01
# [12] = medium dose group, Vitamin D 100 U/kg intragastrically once a day
smiles,measurement,setting,value
"CN(C)C(=N)N=C(N)N [metformin, metformin hydrochloride]",Mean number of tumors,[1]; [5],1.6 ± 0.5
same,Mean number of tumors,[1]; [6],2.0 ± 0.7
same,"number of tumors, trend with dose",[1]; [7],reduced with the increase of dose
same,Mean number of tumors,[1]; [8],1.8 ± 0.4
same,Number of Animals with tumor,[1]; [5],10
same,Number of Animals with tumor,[1]; [6],10
same,Number of Animals with tumor,[1]; [8],10
same,Inhibition rate(%),[1]; [5],42.9%
same,Inhibition rate(%),[1]; [6],28.6%
same,Inhibition rate(%),[1]; [8],35.7%
same,"number of tumors, trend with dose",[2]; end of week 18,reduced with the increase of dose
same,ACF AC = 1,[3]; [5],61.5 ± 8.1
same,ACF AC = 2,[3]; [5],13.8 ± 3.4
same,ACF AC = 3,[3]; [5],4.0 ± 1.2
same,ACF AC ≧ 4,[3]; [5],9.7 ± 3.2
same,The total number of ACF,[3]; [5],89.0 ± 12.7
same,ACF AC = 1,[3]; [6],70.4 ± 10.6
same,ACF AC = 2,[3]; [6],16.7 ± 3.6
same,ACF AC = 3,[3]; [6],6.7 ± 1.7
same,ACF AC ≧ 4,[3]; [6],16.5 ± 2.1
same,The total number of ACF,[3]; [6],110.3 ± 13.0
same,"inhibitory effect on ACF, trend with dose",[3],same trend
same,ACF AC = 1,[3]; [8],57.0 ± 10.7
same,ACF AC = 2,[3]; [8],16.6 ± 1.8
same,ACF AC = 3,[3]; [8],5.4 ± 1.6
same,ACF AC ≧ 4,[3]; [8],14.8 ± 3.0
same,The total number of ACF,[3]; [8],93.8 ± 11.7
"C=C1CC[C@H](O)C/C1=C/C=C1\CCC[C@]2(C)[C@@H]([C@H](C)CCCC(C)C)CC[C@@H]12 [vitamin D3, Vitamin D3]",Mean number of tumors,[1]; [9],1.4 ± 0.8
same,Mean number of tumors,[1]; [10],2.3 ± 0.5
same,"inhibition rate for tumor, trend with dose",[1]; [7],increased with the increase of dose
same,number of tumors compared with the model control group,[1]; [11],significantly reduced
same,Mean number of tumors,[1]; [12],1.7 ± 0.7
same,Number of Animals with tumor,[1]; [9],8
same,Number of Animals with tumor,[1]; [10],10
same,Number of Animals with tumor,[1]; [12],10
same,Inhibition rate(%),[1]; [9],50.0%
same,Inhibition rate(%),[1]; [10],17.9%
same,Inhibition rate(%),[1]; [12],39.3%
same,"inhibition rate for tumor, trend with dose",[2]; end of week 18,increased with the increased of dose
same,tumor number compared with the model control group,[2]; [11],significantly reduced
same,Weight gain,[4]; [9],225.7%
same,Weight gain,[4]; [10],227.7%
same,Weight gain,[4]; [12],235.7%
same,Body weight Week 18,[4]; [9],328.8 ± 23.6
same,Body weight Week 0,[4]; [9],101.5 ± 5.2
same,Body weight Week 18,[4]; [10],377.5 ± 27.5
same,Body weight Week 0,[4]; [10],100.3 ± 4.1
same,Body weight Week 18,[4]; [12],294.3 ± 22.1
same,Body weight Week 0,[4]; [12],102.9 ± 5.8
same,ACF AC = 1,[3]; [9],61.8 ± 11.1
same,ACF AC = 2,[3]; [9],14.9 ± 5.9
same,ACF AC = 3,[3]; [9],5.0 ± 1.6
same,ACF AC ≧ 4,[3]; [9],9.8 ± 2.2
same,The total number of ACF,[3]; [9],91.5 ± 7.2
same,ACF AC = 1,[3]; [10],80.5 ± 7.6
same,ACF AC = 2,[3]; [10],16.1 ± 5.7
same,ACF AC = 3,[3]; [10],9.0 ± 2.3
same,ACF AC ≧ 4,[3]; [10],20.0 ± 4.1
same,The total number of ACF,[3]; [10],125.6 ± 12.1
same,"inhibitory effect on ACF, trend with dose",[3],increased with the increase of dose
same,ACF AC = 1,[3]; [12],67.9 ± 11.8
same,ACF AC = 2,[3]; [12],15.9 ± 5.7
same,ACF AC = 3,[3]; [12],4.8 ± 3.1
same,ACF AC ≧ 4,[3]; [12],16.1 ± 2.9
same,The total number of ACF,[3]; [12],104.7 ± 14.3
